Paper PMC3961306, “Comparison of the Cancer Gene Targeting and Biochemical Selectivities of All Targeted Kinase Inhibitors Approved for Clinical Use” (PLoS ONE, 2014)

Tests used:
Experiment in all cases: Kinase profiling in a biochemical assay panel (mobility shift assays and ELISA), %-inhibition at 1 μM; selectivity entropy
[1] = target: panel of more than 300 wild-type and mutant kinases (313 kinase panel) (Homo sapiens, UniProt O75582)
[2] = target: panel of more than 300 wild-type and mutant kinases (313 kinase panel) (Homo sapiens, UniProt P08581)
[3] = target: panel of more than 300 wild-type and mutant kinases (313 kinase panel) (Homo sapiens, UniProt Q9UM73)
[4] = target: panel of more than 300 wild-type and mutant kinases (313 kinase panel) (Homo sapiens, UniProt Q9UBS0)
[5] = target: panel of more than 300 wild-type and mutant kinases (313 kinase panel) (Homo sapiens, UniProt P48729)
[6] = target: panel of more than 300 wild-type and mutant kinases (313 kinase panel) (Homo sapiens, UniProt P51617)
[7] = target: panel of more than 300 wild-type and mutant kinases (313 kinase panel) (Homo sapiens, UniProt Q13882)
Sequence of panel of more than 300 wild-type and mutant kinases (313 kinase panel) (Homo sapiens, UniProt Q13882) (Q13882 whole entry, change not shown): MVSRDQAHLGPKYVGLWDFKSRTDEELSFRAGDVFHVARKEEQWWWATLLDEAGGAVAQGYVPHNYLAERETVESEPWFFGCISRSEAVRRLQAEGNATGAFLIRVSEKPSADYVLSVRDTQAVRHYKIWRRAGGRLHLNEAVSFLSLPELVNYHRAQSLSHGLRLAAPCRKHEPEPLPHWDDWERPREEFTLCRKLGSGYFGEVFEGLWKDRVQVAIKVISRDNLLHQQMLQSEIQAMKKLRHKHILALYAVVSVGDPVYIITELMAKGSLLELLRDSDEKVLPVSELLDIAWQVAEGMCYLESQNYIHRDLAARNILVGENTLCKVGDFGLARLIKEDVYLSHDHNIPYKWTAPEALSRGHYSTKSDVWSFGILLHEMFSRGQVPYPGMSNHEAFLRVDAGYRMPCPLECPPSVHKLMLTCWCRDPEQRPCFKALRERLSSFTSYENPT

[8] = target: panel of more than 300 wild-type and mutant kinases (313 kinase panel) (Homo sapiens, UniProt Q8N4C8)
Sequence of panel of more than 300 wild-type and mutant kinases (313 kinase panel) (Homo sapiens, UniProt Q8N4C8) (Q8N4C8 whole entry, change not shown): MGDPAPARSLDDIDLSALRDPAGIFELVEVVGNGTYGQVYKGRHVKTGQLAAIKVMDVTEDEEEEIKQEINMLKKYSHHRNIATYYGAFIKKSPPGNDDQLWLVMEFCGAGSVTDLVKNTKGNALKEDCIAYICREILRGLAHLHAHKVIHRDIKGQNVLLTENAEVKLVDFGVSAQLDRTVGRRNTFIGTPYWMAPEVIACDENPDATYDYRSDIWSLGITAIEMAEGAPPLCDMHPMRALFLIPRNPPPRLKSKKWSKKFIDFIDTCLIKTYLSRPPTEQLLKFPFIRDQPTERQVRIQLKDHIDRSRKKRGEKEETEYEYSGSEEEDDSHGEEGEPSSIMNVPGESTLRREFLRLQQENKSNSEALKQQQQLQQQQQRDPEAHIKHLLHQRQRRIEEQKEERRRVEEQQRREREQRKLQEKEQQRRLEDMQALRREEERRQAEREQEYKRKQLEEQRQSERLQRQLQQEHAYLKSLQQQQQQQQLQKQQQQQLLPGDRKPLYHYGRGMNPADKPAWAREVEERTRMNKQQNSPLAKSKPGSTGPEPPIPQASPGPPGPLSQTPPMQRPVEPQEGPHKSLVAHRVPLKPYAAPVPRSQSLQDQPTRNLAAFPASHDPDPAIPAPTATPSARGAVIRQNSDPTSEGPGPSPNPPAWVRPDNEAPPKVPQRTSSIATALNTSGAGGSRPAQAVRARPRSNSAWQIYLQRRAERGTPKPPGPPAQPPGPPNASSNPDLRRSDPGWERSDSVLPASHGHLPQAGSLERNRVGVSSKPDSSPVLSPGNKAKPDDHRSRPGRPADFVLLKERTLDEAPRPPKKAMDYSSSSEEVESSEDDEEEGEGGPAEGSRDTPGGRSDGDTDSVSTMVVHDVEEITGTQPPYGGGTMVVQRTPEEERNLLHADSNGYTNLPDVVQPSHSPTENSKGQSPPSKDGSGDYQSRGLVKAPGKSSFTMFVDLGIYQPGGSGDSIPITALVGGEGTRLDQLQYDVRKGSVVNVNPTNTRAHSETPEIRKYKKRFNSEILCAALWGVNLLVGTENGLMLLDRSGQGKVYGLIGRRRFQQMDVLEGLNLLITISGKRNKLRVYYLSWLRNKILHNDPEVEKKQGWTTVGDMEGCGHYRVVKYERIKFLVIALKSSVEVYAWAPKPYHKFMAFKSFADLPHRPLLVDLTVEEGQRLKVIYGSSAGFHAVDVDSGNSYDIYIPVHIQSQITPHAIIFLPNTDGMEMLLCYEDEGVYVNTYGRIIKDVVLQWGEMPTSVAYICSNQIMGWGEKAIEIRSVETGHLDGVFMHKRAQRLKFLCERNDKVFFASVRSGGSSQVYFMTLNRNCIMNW

[9] = target: panel of more than 300 wild-type and mutant kinases (313 kinase panel) (Homo sapiens, UniProt Q15119)
[10] = target: panel of more than 300 wild-type and mutant kinases (313 kinase panel) (Homo sapiens, UniProt Q9HCP0)
[11] = target: T1, panel of more than 300 wild-type and mutant kinases (313 kinase panel) (Homo sapiens, UniProt P00540)
T1 sequence (P00540 1-346): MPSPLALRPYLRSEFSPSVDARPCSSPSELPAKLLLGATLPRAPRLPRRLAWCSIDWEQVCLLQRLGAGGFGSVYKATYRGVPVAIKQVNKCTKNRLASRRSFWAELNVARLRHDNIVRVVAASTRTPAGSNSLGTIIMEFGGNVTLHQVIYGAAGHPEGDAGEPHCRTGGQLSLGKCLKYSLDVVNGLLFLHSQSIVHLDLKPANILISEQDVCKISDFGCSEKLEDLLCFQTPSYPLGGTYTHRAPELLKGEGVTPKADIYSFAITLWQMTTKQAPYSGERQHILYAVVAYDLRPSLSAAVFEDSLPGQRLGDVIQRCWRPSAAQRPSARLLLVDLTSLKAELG

[12] = target: panel of more than 300 wild-type and mutant kinases (313 kinase panel) (Homo sapiens, UniProt P24941)
[13] = target: panel of more than 300 wild-type and mutant kinases (313 kinase panel) (Homo sapiens, UniProt P57059)
[14] = target: panel of more than 300 wild-type and mutant kinases (313 kinase panel) (Homo sapiens, UniProt Q9P289)
Sequence of panel of more than 300 wild-type and mutant kinases (313 kinase panel) (Homo sapiens, UniProt Q9P289) (Q9P289 whole entry, change not shown): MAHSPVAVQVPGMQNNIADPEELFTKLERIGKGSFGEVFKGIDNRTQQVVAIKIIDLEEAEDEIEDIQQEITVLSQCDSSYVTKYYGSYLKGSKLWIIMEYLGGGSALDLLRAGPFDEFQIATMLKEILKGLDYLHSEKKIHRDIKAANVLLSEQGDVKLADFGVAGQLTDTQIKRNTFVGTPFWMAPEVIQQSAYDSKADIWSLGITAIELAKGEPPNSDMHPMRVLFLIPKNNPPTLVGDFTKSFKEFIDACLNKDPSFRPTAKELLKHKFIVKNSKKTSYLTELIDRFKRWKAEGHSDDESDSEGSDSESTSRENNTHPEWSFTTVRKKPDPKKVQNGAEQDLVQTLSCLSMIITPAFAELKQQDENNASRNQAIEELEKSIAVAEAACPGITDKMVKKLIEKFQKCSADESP

[15] = target: panel of more than 300 wild-type and mutant kinases (313 kinase panel) (Homo sapiens, UniProt Q96SB4)
Sequence of panel of more than 300 wild-type and mutant kinases (313 kinase panel) (Homo sapiens, UniProt Q96SB4) (Q96SB4 whole entry, change not shown): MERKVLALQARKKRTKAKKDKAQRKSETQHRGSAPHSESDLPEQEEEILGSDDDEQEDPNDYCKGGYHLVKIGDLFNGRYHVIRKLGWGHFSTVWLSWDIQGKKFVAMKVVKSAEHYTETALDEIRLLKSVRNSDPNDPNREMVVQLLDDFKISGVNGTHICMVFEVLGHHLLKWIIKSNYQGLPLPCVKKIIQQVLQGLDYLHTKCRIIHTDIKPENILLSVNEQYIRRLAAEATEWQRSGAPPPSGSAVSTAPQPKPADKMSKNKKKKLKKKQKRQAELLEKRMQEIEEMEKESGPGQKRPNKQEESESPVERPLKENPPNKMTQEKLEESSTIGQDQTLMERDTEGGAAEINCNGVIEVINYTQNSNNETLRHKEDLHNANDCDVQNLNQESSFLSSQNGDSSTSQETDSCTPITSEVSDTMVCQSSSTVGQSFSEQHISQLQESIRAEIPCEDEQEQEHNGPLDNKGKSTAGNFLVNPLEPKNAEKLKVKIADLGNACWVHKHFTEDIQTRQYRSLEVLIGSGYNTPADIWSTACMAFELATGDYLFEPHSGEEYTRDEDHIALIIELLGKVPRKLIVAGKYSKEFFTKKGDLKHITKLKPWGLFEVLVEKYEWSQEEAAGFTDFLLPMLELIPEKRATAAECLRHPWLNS

[16] = kinase CDK2/CycA2, 1 μM compound
[17] = kinase CDK2/CycE1, 1 μM compound

In the case of `CO[C@H]1C[C@@H]2CC[C@@H](C)[C@@](O)(O2)C(=O)C(=O)N2CCCC[C@H]2C(=O)O[C@H]([C@H](C)C[C@@H]2CC[C@@H](OCCO)[C@H](OC)C2)CC(=O)[C@H](C)/C=C(\C)[C@@H](O)[C@@H](OC)C(=O)[C@H](C)C[C@H](C)/C=C/C=C/C=C/1C` [everolimus], the “%-inhibition of MSK1” value ([1]; kinase MSK1, 1 μM) is reported as -2%, the “%-inhibition of MET” value ([2]; kinase MET, compound at 1 μM) is reported as -4% and the “%-inhibition, ALK” value ([3]; kinase ALK, 1 μM compound) is reported as 1.68%. The “%-inhibition of p70S6Kβ” value ([4]; kinase p70S6Kβ, 1 μM) was -11%, the “%-inhibition, CK1α” value ([5]; kinase CK1α, 1 μM compound) was -11% and the “%-inhibition of IRAK1” value ([6]; kinase IRAK1, compound at 1 μM) was 12%. For the same molecule, the “%-inhibition, BRK” value ([7]; kinase BRK, 1 μM compound) was -4.32%, the “%-inhibition of MINK” value ([8]; kinase MINK, 1 μM) was -7.49% and the “%-inhibition of PDHK2” value ([9]; kinase PDHK2, 1 μM) was 4%. The “%-inhibition, CK1γ1” value ([10]; kinase CK1γ1, 1 μM compound) was -2.44%, the “%-inhibition of MOS” value ([11]; kinase MOS, 1 μM) was 3.3% and the “%-inhibition, CDK2/CycA2” value [12, 16] was -11%. For the same molecule, the “%-inhibition, CDK2/CycE1” value [12, 17] was -14%, the “%-inhibition of SIK” value ([13]; kinase SIK, 1 μM) was -5.51% and the “%-inhibition of MST4” value ([14]; kinase MST4, 1 μM) was -5.58%. For the same molecule, the “%-inhibition of SRPK1” value ([15]; kinase SRPK1, 1 μM) was 1.69%.
`CNC(=O)c1cc(Oc2ccc(NC(=O)Nc3ccc(Cl)c(C(F)(F)F)c3)c(F)c2)ccn1` [regorafenib] was tested, and the “%-inhibition of MSK1” value ([1]; kinase MSK1, 1 μM) was 1%, the “%-inhibition of MET” value ([2]; kinase MET, compound at 1 μM) was 2.12% and the “%-inhibition, ALK” value ([3]; kinase ALK, 1 μM compound) was -3.43%. For the same molecule, the “%-inhibition of p70S6Kβ” value ([4]; kinase p70S6Kβ, 1 μM) was 1.41%, the “%-inhibition, CK1α” value ([5]; kinase CK1α, 1 μM compound) was -7.56% and the “%-inhibition of IRAK1” value ([6]; kinase IRAK1, compound at 1 μM) was 16%. The “%-inhibition, BRK” value ([7]; kinase BRK, 1 μM compound) was 20%, the “%-inhibition of MINK” value ([8]; kinase MINK, 1 μM) was 24% and the “%-inhibition of PDHK2” value ([9]; kinase PDHK2, 1 μM) was 7%. For the same molecule, the “%-inhibition, CK1γ1” value ([10]; kinase CK1γ1, 1 μM compound) was -8%, the “%-inhibition of MOS” value ([11]; kinase MOS, 1 μM) was 0.399% and the “%-inhibition, CDK2/CycA2” value [12, 16] was -12%. For the same molecule, the “%-inhibition, CDK2/CycE1” value [12, 17] was -2.7%, the “%-inhibition of SIK” value ([13]; kinase SIK, 1 μM) was 0.674% and the “%-inhibition of MST4” value ([14]; kinase MST4, 1 μM) was 3.66%. For the same molecule, the “%-inhibition of SRPK1” value ([15]; kinase SRPK1, 1 μM) was 27%.
With `CC(=O)Nc1cccc(-n2c(=O)n(C3CC3)c(=O)c3c(Nc4ccc(I)cc4F)n(C)c(=O)c(C)c32)c1` [trametinib] the “%-inhibition of MSK1” value ([1]; kinase MSK1, 1 μM) was -0.531%, the “%-inhibition of MET” value ([2]; kinase MET, compound at 1 μM) was -2.41% and the “%-inhibition, ALK” value ([3]; kinase ALK, 1 μM compound) was -2.82%. The “%-inhibition of p70S6Kβ” value ([4]; kinase p70S6Kβ, 1 μM) was -1%, the “%-inhibition, CK1α” value ([5]; kinase CK1α, 1 μM compound) was 3% and the “%-inhibition of IRAK1” value ([6]; kinase IRAK1, compound at 1 μM) was 6%. For the same molecule, the “%-inhibition, BRK” value ([7]; kinase BRK, 1 μM compound) was -5.53%, the “%-inhibition of MINK” value ([8]; kinase MINK, 1 μM) was -1.8% and the “%-inhibition of PDHK2” value ([9]; kinase PDHK2, 1 μM) was -0.542%. For the same molecule, the “%-inhibition, CK1γ1” value ([10]; kinase CK1γ1, 1 μM compound) was 0.211%, the “%-inhibition of MOS” value ([11]; kinase MOS, 1 μM) was 42% and the “%-inhibition, CDK2/CycA2” value [12, 16] was 24%. For the same molecule, the “%-inhibition, CDK2/CycE1” value [12, 17] was 2.59%, the “%-inhibition of SIK” value ([13]; kinase SIK, 1 μM) was -3% and the “%-inhibition of MST4” value ([14]; kinase MST4, 1 μM) was -2.23%. The “%-inhibition of SRPK1” value ([15]; kinase SRPK1, 1 μM) was -0.0691%.
For `CO[C@H]1C[C@@H]2CC[C@@H](C)[C@@](O)(O2)C(=O)C(=O)N2CCCC[C@H]2C(=O)O[C@H]([C@H](C)C[C@@H]2CC[C@@H](OC(=O)C(C)(CO)CO)[C@H](OC)C2)CC(=O)[C@H](C)/C=C(\C)[C@@H](O)[C@@H](OC)C(=O)[C@H](C)C[C@H](C)/C=C/C=C/C=C/1C` [temsirolimus], the “%-inhibition of MSK1” value ([1]; kinase MSK1, 1 μM) was 0%, the “%-inhibition of MET” value ([2]; kinase MET, compound at 1 μM) was -4.57% and the “%-inhibition, ALK” value ([3]; kinase ALK, 1 μM compound) was -2%. The “%-inhibition of p70S6Kβ” value ([4]; kinase p70S6Kβ, 1 μM) was -7%, the “%-inhibition, CK1α” value ([5]; kinase CK1α, 1 μM compound) was -14% and the “%-inhibition of IRAK1” value ([6]; kinase IRAK1, compound at 1 μM) was 13%. The “%-inhibition, BRK” value ([7]; kinase BRK, 1 μM compound) was -6%, the “%-inhibition of MINK” value ([8]; kinase MINK, 1 μM) was -4% and the “%-inhibition of PDHK2” value ([9]; kinase PDHK2, 1 μM) was -2.2%. The “%-inhibition, CK1γ1” value ([10]; kinase CK1γ1, 1 μM compound) was -4.47%, the “%-inhibition of MOS” value ([11]; kinase MOS, 1 μM) was -1.43% and the “%-inhibition, CDK2/CycA2” value [12, 16] was -8%. The “%-inhibition, CDK2/CycE1” value [12, 17] was -1.35%, the “%-inhibition of SIK” value ([13]; kinase SIK, 1 μM) was -5.28% and the “%-inhibition of MST4” value ([14]; kinase MST4, 1 μM) was -3.42%. The “%-inhibition of SRPK1” value ([15]; kinase SRPK1, 1 μM) was 6%.
`N#CC[C@H](C1CCCC1)n1cc(-c2ncnc3[nH]ccc23)cn1` [ruxolitinib] was tested, and the “%-inhibition of MSK1” value ([1]; kinase MSK1, 1 μM) was 37%, the “%-inhibition of MET” value ([2]; 1 µM) was -3.54% and the “%-inhibition, ALK” value ([3]; 1 µM) was 69%. The “%-inhibition of p70S6Kβ” value ([4]; kinase p70S6Kβ, 1 μM) was 11%, the “%-inhibition, CK1α” value ([5]; kinase CK1α, 1 μM compound) was 1.86% and the “%-inhibition of IRAK1” value ([6]; kinase IRAK1, compound at 1 μM) was 50%. The “%-inhibition, BRK” value ([7]; kinase BRK, 1 μM compound) was -4%, the “%-inhibition of MINK” value ([8]; 1 µM) was -6% and the “%-inhibition of PDHK2” value ([9]; kinase PDHK2, 1 μM) was -4%. The “%-inhibition, CK1γ1” value ([10]; kinase CK1γ1, 1 μM compound) was -4%, the “%-inhibition of MOS” value ([11]; kinase MOS, 1 μM) was 8% and the “%-inhibition, CDK2/CycA2” value [12, 16] was 2.48%. The “%-inhibition, CDK2/CycE1” value [12, 17] was -12%, the “%-inhibition of SIK” value ([13]; kinase SIK, 1 μM) was 22% and the “%-inhibition of MST4” value ([14]; kinase MST4, 1 μM) was -3%. The “%-inhibition of SRPK1” value ([15]; kinase SRPK1, 1 μM) was 2.4%.
In the case of `Cc1cn(-c2cc(NC(=O)c3ccc(C)c(Nc4nccc(-c5cccnc5)n4)c3)cc(C(F)(F)F)c2)cn1` [nilotinib], the “%-inhibition of MSK1” value ([1]; kinase MSK1, 1 μM) is reported as 2.48%, the “%-inhibition of MET” value ([2]; kinase MET, compound at 1 μM) is reported as -9% and the “%-inhibition, ALK” value ([3]; kinase ALK, 1 μM compound) is reported as -8%. The “%-inhibition of p70S6Kβ” value ([4]; kinase p70S6Kβ, 1 μM) was -3.7%, the “%-inhibition, CK1α” value ([5]; 1 µM) was 2% and the “%-inhibition of IRAK1” value ([6]; kinase IRAK1, compound at 1 μM) was 8%. The “%-inhibition, BRK” value ([7]; kinase BRK, 1 μM compound) was 75%, the “%-inhibition of MINK” value ([8]; kinase MINK, 1 μM) was 3% and the “%-inhibition of PDHK2” value ([9]; kinase PDHK2, 1 μM) was 0.549%. For the same molecule, the “%-inhibition, CK1γ1” value ([10]; 1 µM) was -1%, the “%-inhibition of MOS” value ([11]; kinase MOS, 1 μM) was -3.64% and the “%-inhibition, CDK2/CycA2” value [12, 16] was -0.282%. The “%-inhibition, CDK2/CycE1” value [12, 17] was 20%, the “%-inhibition of SIK” value ([13]; kinase SIK, 1 μM) was -25% and the “%-inhibition of MST4” value ([14]; kinase MST4, 1 μM) was 1.77%. For the same molecule, the “%-inhibition of SRPK1” value ([15]; kinase SRPK1, 1 μM) was 3%.
`C#Cc1cccc(Nc2ncnc3cc(OCCOC)c(OCCOC)cc23)c1` [erlotinib] was tested, and the “%-inhibition of MSK1” value ([1]; 1 µM) was 9%, the “%-inhibition of MET” value ([2]; 1 µM) was 13% and the “%-inhibition, ALK” value ([3]; 1 µM) was 35%. For the same molecule, the “%-inhibition of p70S6Kβ” value ([4]; 1 µM) was 13%, the “%-inhibition, CK1α” value ([5]; 1 µM) was 10% and the “%-inhibition of IRAK1” value ([6]; 1 µM) was -1.65%. For the same molecule, the “%-inhibition, BRK” value ([7]; 1 µM) was 47%, the “%-inhibition of MINK” value ([8]; 1 µM) was 19% and the “%-inhibition of PDHK2” value ([9]; 1 µM) was -4%. The “%-inhibition, CK1γ1” value ([10]; 1 µM) was 2.22%, the “%-inhibition of MOS” value ([11]; 1 µM) was 3.64% and the “%-inhibition, CDK2/CycA2” value ([12]; 1 µM) was 10%. For the same molecule, the “%-inhibition, CDK2/CycE1” value ([12]; 1 µM) was -2.43%, the “%-inhibition of SIK” value ([13]; 1 µM) was 8% and the “%-inhibition of MST4” value ([14]; 1 µM) was 7%. For the same molecule, the “%-inhibition of SRPK1” value ([15]; 1 µM) was -1.67%.
